Laboratory results published in PubChem BioAssay (NCI).
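Interpolation was linear, between the two tested concentrations surrounding the appropriate level; five concentrations were tested over 48 hours in 96-well plates. GI50: concentration for 50% inhibition of growth. TGI: total growth inhibition.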

Tests used:
Experiment in all cases: NCI anticancer screen, dose series, 48 h
MDA-MB-231 breast = test system: MDA-MB-231 breast
OVCAR-3 ovarian = test system: OVCAR-3 ovarian
SN12C renal = test system: SN12C renal
NCI-H226 lung = test system: NCI-H226 lung
MDA-MB-435 = test system: MDA-MB-435
SNB-75 CNS = test system: SNB-75 CNS
NCI-H460 lung = test system: NCI-H460 lung
HT29 colon = test system: HT29 colon
HOP-92 NSCLC = test system: HOP-92 NSCLC
SK-MEL-2 melanoma = test system: SK-MEL-2 melanoma

Structure (SMILES)	GI50 (MDA-MB-231 breast)	TGI (MDA-MB-231 breast)	GI50 (OVCAR-3 ovarian)	TGI (OVCAR-3 ovarian)	GI50 (SN12C renal)	TGI (SN12C renal)	GI50 (NCI-H226 lung)	TGI (NCI-H226 lung)	GI50 (MDA-MB-435)	TGI (MDA-MB-435)	GI50 (SNB-75 CNS)	TGI (SNB-75 CNS)	GI50 (NCI-H460 lung)	TGI (NCI-H460 lung)	GI50 (HT29 colon)	TGI (HT29 colon)	GI50 (HOP-92 NSCLC)	TGI (HOP-92 NSCLC)	GI50 (SK-MEL-2 melanoma)	TGI (SK-MEL-2 melanoma)
Cc1cc(I)cc(CNCCCN2CCSCC2)c1O	18.2 µM	41.8 µM	14.1 µM	27.7 µM	41.4 µM	> 100 µM	24.5 µM	79.8 µM	13.6 µM	26.6 µM	13.7 µM	28.8 µM	14.3 µM	29.5 µM	14 µM	27.8 µM	7.57 µM	22.3 µM	18.6 µM	35.4 µM
Nc1ccn(C2O[C@H](CO)[C@@H](O)[C@@H]2O)c(=O)n1 (stereo partly drawn)		> 100 µM		> 100 µM		> 100 µM		> 100 µM		> 100 µM	41.5 µM	> 100 µM	23 µM	> 100 µM		> 100 µM	33.8 µM	> 100 µM		> 100 µM
CC1OC(n2cc(F)c(=O)[nH]c2=O)CCC1O (stereo not drawn)		> 100 µM		> 100 µM		> 100 µM		> 100 µM		> 100 µM		> 100 µM		> 100 µM		> 100 µM		> 100 µM		> 100 µM
CNC(=O)OCc1c(COC(=O)NC)c(-c2ccc(Cl)c(Cl)c2)n2c1SCC2		34.4 µM		25.2 µM		34 µM		2.67 µM		33.3 µM		25.1 µM		19.9 µM		37.5 µM		17.6 µM		26.7 µM
O=C1/C(=C/c2ccc(Br)cc2)C=C(c2ccccc2)N1CCc1ccccc1	1.67 µM	24.7 µM	1.78 µM	7.34 µM	2.15 µM	20.4 µM	1.11 µM	4.57 µM	8.38 µM	> 100 µM	0.66 µM	3.83 µM	0.906 µM	10.2 µM	4.73 µM	> 100 µM	0.32 µM	2.63 µM	4.47 µM	27.2 µM
COc1ccc(C2=NN(C(=O)c3cc(OC)c(OC)c(OC)c3)C(c3ccc(C#N)cc3)C2)cc1OC (stereo not drawn)	2.86 µM	> 45.6 µM	0.478 µM	2.35 µM	4.47 µM	> 100 µM	2.84 µM	> 55.3 µM	0.334 µM	1.24 µM	0.586 µM	19.9 µM	2.01 µM	> 100 µM	2.42 µM	> 32.1 µM	0.113 µM	0.792 µM	1.58 µM	> 20.3 µM
Cn1c(N2NC(=O)C(N=Nc3ccc(S(N)(=O)=O)cc3)C2=O)nc(-c2ccco2)c(C#N)c1=O (stereo not drawn)	28.6 µM	> 50 µM	13.4 µM	> 50 µM	> 50 µM	> 50 µM	> 50 µM	> 50 µM	32.3 µM	> 50 µM	39.2 µM	> 50 µM	> 50 µM	> 50 µM	33.4 µM	> 50 µM	25.5 µM	> 50 µM	> 50 µM	> 50 µM
N#C/C(=C1C=C/C(=N/O)C(Br)=C/1)c1ccccc1	2.27 µM	6.73 µM	3.48 µM	11.4 µM	3.68 µM	16.8 µM	3.59 µM	11.6 µM	0.495 µM	2.32 µM	3.42 µM	22.6 µM	2.89 µM	8.8 µM	3.3 µM	10.2 µM	0.385 µM	3.77 µM	3.64 µM	13.9 µM
CCOc1cccc(/C=N/NC(=O)c2ccccc2Nc2ccnc(C(F)(F)F)c2)c1O	0.7 µM	> 100 µM	0.37 µM	51.7 µM	0.989 µM	> 94.9 µM	0.664 µM	19.1 µM	1.07 µM	77.4 µM	2.09 µM	> 77.9 µM	0.272 µM	7.05 µM	3.79 µM	> 100 µM	0.246 µM	19.7 µM	3.4 µM	> 50.4 µM
O=C(NCCOCCOCCNc1cccc2c1C(=O)N(C1CCCNC1=O)C2=O)c1cc2c(o1)C(=O)c1ccccc1C2=O (stereo not drawn)	2.72 µM	9.96 µM	0.682 µM	2.69 µM	1.52 µM	2.96 µM	1.78 µM	3.95 µM	1.62 µM	3.05 µM	2.65 µM	4.61 µM	1.85 µM	3.59 µM	2.93 µM	8.05 µM	3.31 µM	13.6 µM	2.11 µM	6.1 µM
CN1CCN(Cc2ccc(NC(=O)c3cncc(C#Cc4cnc(N)c5ccc(C#N)cc45)c3)cc2C(F)(F)F)CC1	0.037 µM	0.228 µM	0.331 µM	1.45 µM	0.0218 µM	0.611 µM	0.0698 µM	0.864 µM	0.0286 µM	0.675 µM	0.123 µM	0.876 µM	0.0976 µM	1.1 µM	0.0211 µM	0.838 µM	0.0244 µM	0.344 µM	0.0217 µM	0.353 µM
CC1=C(C(=O)Nc2ccc3[nH]ncc3c2)C(c2ccc3ccccc3c2)CC(=O)N1 (stereo not drawn)	11.7 µM	> 25 µM	> 25 µM	> 25 µM	> 25 µM	> 25 µM	1.04 µM	> 18.2 µM	> 25 µM	> 25 µM	1.54 µM	> 20.1 µM	> 25 µM	> 25 µM	20 µM	> 25 µM	0.0408 µM	10.9 µM	> 25 µM	> 25 µM
Cc1cc(N(CCOS(C)(=O)=O)CCOS(C)(=O)=O)ccc1C=Nc1ccc(-c2nc(Cc3ccccc3)sc2C)cc1		26.9 µM		19.6 µM		26.3 µM		22.6 µM		26.6 µM		12.3 µM		5.03 µM		21.4 µM		25.4 µM		34.9 µM
COC(=O)CCCCN=Cc1c(O)c(O)c(C(C)C)c2cc(C)c(-c3c(C)cc4c(C(C)C)c(O)c(O)c(C=NCCCCC(=O)OC)c4c3O)c(O)c12	1.08 µM	12.1 µM	1.02 µM	> 32.5 µM	1.14 µM	> 32.5 µM	1.3 µM	8.38 µM	1.46 µM	> 32.5 µM	2.6 µM	> 32.5 µM	1.04 µM	9.48 µM	0.978 µM	17.1 µM	0.782 µM	2.64 µM	1.38 µM	> 32.5 µM
Cc1ccc(S(=O)(=O)N(CCOc2ccc(/C(N)=N/Cl)cc2)CCOc2ccc(/C(N)=N\Cl)cc2)cc1	44.4 µM	> 100 µM	5.99 µM	31 µM	5.52 µM	> 100 µM	59.6 µM	> 100 µM	21.8 µM	> 100 µM	4.92 µM	20.1 µM	5.62 µM	25.2 µM	9.8 µM	> 100 µM	17.2 µM	89.3 µM	> 100 µM	> 100 µM
CSc1ccc(C2=NN(C(C)=O)C(c3cc(C)cs3)C2)cc1 (stereo not drawn)	27.5 µM	> 100 µM	23.9 µM	> 100 µM	26.2 µM	> 100 µM	21.8 µM	> 100 µM	23.4 µM	> 100 µM	22.1 µM	> 100 µM	27.3 µM	> 100 µM	24.9 µM	> 100 µM	21.6 µM	90.1 µM	39 µM	> 100 µM
COC(=O)c1cc2c3ccccc3[nH]c2c2ncccc12	63.9 µM	> 100 µM	> 100 µM	> 100 µM	> 100 µM	> 100 µM	> 100 µM	> 100 µM	> 100 µM	> 100 µM	17.3 µM	65.3 µM	51.4 µM	> 100 µM	59.2 µM	> 100 µM	> 100 µM	> 100 µM	> 100 µM	> 100 µM
CCc1c(Oc2ccc(C(C)=O)cc2)c2ccccc2[nH]c1=O	7.03 µM	39.1 µM	26 µM	80.9 µM	16.6 µM	61.8 µM	2.8 µM	43.9 µM	16.5 µM	> 100 µM	> 26.9 µM	> 100 µM	18.7 µM	65.7 µM	26.9 µM	> 100 µM	1.67 µM	11.7 µM	59.5 µM	> 100 µM
